The text below walks through data of US4029731A, “Aminophenyltetralin compounds” (Pfizer Inc., priority 1976, dated 1977).

Where a name gives a salt, the structure may show the parent alone. A value given as a limit tells only on which side of the number the result lay.

Common to all, as to assay type: in vivo
The test system of data set [1] is non-discriminated (Sidman) avoidance behavior rats. As to the kind of experiment: Non-discriminated (Sidman) avoidance behavior in rats. The note with it: 5 mg./kg. and 10 mg./kg. i.p. The text has this:
Eight (8) mature male rats were trained in Lehigh Valley automatic multiple-operant conditioning chambers to avoid a 2.0 mA electric shock that would last for 0.75 second, or terminate sooner if the rat lever became activated during the shock. In these tests, lever presses postponed the onset of shock for an initial period of 30 seconds, while only 10 seconds elapsed between shocks if no intervening response was elicited. The rats were run for a 40-minute control period before receiving the drug and then for approximately 2.5 hours after each treatment.

Data set [2] concerns spontaneous motor activity in mice. As to the kind of experiment: Spontaneous motor activity in mice (actophotometer activity counts). The protocol: A total of seven mice was employed at each dose level tested (viz., at 0.32, 1.0, 3.2, 10 and 32 mg./kg., i.p., respectively) and these mice were separated one to an activity cage. After an initial one-half hour exposure period (for acclimation purposes), each animal in the cage was treated with a sample of the drug intraperitoneally and immediately thereafter returned to said cage, with activity counts every one-half hour being recorded from that point on.

For another data set, the system named is rats. Put plainly: Antidepressant and psychomotor stimulant activity in rats, intraperitoneal. The note with it: i.p., 3.2 mg./kg. to 32 mg./kg. From the text:
(§1) As previously indicated, the 1-amino-4-phenyltetralin compounds of this invention (in the form of their trans-isomers) are all readily adapted to therapeutic use as psychotropic agents, particularly in view of their potent antidepressant and psychomotor stimulant properties. […] The other compounds of this invention also cause similar results. Furthermore, all the herein described trans-isomers of this invention can be administered as psychotropic agents by either the oral or parenteral routes of administration, for the present purposes at hand, without causing any significant untoward pharmacological side effects to occur in the subject to whom they are so administered. In general, these psychotropic compounds are normally administered in dosages ranging from about 0.3 mg., to about 10 mg. per kg. of body weight per day, although variations will necessarily occur depending upon the weight and conditions of the subject being treated and the particular route of administration chosen.

The nature of data set [3]: Toxic / untoward side effects on administration. Conditions: rats, i.p., 3.2 mg./kg. to 32 mg./kg.
Text: as §1

Data set [4] concerns motor activity in mice; avoidance behavior in rats. Put plainly: Psychomotor stimulant activity (motor activity in mice; Sidman avoidance in rats). Conditions: as the hydrochloride salt. From the text:
On the other hand, the activity of the compounds of the present invention, as psychomotor stimulants, is based on a variety of tests, including (1) a study of their motor activity in mice and (2) a measurement of their ability to influence the loss of avoidance behavior in rats trained on a non-discriminated (Sidman) avoidance schedule.

The test system of data set [5] is reserpine-induced hypothermia in the mouse. As to the kind of experiment: Reversal of reserpine-induced hypothermia in the mouse. The note with it: 32 mg./kg. i.p., 2 hours after dosing; reserpine 2 mg./kg. s.c. 18 hours before; saline control 25.1° ± 3.2° C. The protocol: The 1-amino-4-phenyltetraline final products of Examples III-IX were tested for antidepressant activity by measuring their ability to reverse reserpine-induced hypothermia in the mouse according to the procedure described by B.M. Askew in Life Science, Vol. 2, p. 725 (1963). In this test, all the animals were individually housed in plastic chambers with a cardboard bottom. The mice were injected with reserpine subcutaneously at 2 mg./kg. and retained at an ambient temperature of 20° C. for a period of 18 hours. At this point, their rectal temperatures were initially ascertained and immediately thereafter they were divided into groups of 5-20 animals for testing purposes. Each group then received either saline as a control or the compound to be tested at a dose level of 32 mg./kg., administered intraperitoneally, and the resulting rectal temperatures were measured two hours later. In the table below, the entries are reported as mean rectal temperatures for each compound at the 2-hour mark, together with the number of animals tested in each particular group.

For `CN[C@@H]1CC[C@@H](c2ccccc2)c2ccccc21` [Trans-d-isomer of Example III, trans-d-N-methyl-4-phenyl-1,2,3,4-tetrahydro-1-naphthylamine as the hydrochloride], in data set [1], the “duration of drug effect after administration” value is “approximately one and a half”; the “start of drug effect” value was no more than 20 min. In data set [1] (four out of eight rats), the “increase of response rates over normal pre-drug control levels” value is on record as 2-6 times and the response rates result is listed as “moderate to marked increase in response rates”. In data set [1] (two other rats), the “increase of response rates over pre-drug control levels” value is reported as “about 1.5 times”. Also, the “duration of effect compared with d-amphetamine sulfate” value in data set [2] (10 mg./kg. i.p. vs d-amphetamine sulfate at 3.2 mg./kg.) is “even more prolonged in its effect than did that of d-amphetamine sulfate”. Also, the “effect on activity counts compared with d-amphetamine sulfate” value in data set [2] (10 mg/kg. i.p. vs d-amphetamine sulfate at 3.2 mg./kg.) is on record as “more pronounced than that of d-amphetamine sulfate”. For the same compound, the “effect on activity counts compared with methylphenidate” value in data set [2] (10 mg/kg. i.p. vs methylphenidate at 10 mg./kg.) is on record as “surpassing even that of methylphenidate”. For the same compound, the activity counts result in data set [2] (10 mg/kg.(i.p.), 30-60 minutes after treatment) is on record as “markedly elevated the activity counts”. Also, in the data set with rats, the “antidepressant and psychomotor stimulant activity” value was “marked antidepressant and psychomotor stimulant activity”. In addition, the “signs of toxic side effects” value in data set [3] is recorded as “without showing any substantial signs of toxic side effects”. In addition, in data set [4], the “duration of motor stimulant activity” value is listed as “long duration of motor stimulant activity”, the onset of action entry was “rapid onset of action” and the “potency as psychomotor stimulant compared with methylphenidate” value is given as “comparable in potency to methylphenidate”. Moreover, the “Mean Rectal Temperature, Temp. (° C.) ±S.D.” value in data set [5] stood at 34.1 ± 0.7 °C.
